In one assay the test system is Splenocyte. As to the kind of experiment: Induction IFN production in C3H/HeJ mouse Splenocytes measured after 18 hrs. The format is functional. To be noted: read-out: MEC.
A short description of assay [1]: Antagonist activity at mouse CpG-oligonucleotide in mouse WEHI-231 cells assessed as inhibition of CpG-oligonucleotide induced thymidine uptake preincubated for 16 hrs followed by 3H-thymidine addition and measured after 4 hrs in presence of anti-serum IgM by radioactivity analysis. The format is cell-based. To be noted: WEHI231.
The next assay concerns the target T1, Toll-like receptor 8 (Homo sapiens, UniProt Q9NR97).
T1 sequence (Q9NR97 whole entry): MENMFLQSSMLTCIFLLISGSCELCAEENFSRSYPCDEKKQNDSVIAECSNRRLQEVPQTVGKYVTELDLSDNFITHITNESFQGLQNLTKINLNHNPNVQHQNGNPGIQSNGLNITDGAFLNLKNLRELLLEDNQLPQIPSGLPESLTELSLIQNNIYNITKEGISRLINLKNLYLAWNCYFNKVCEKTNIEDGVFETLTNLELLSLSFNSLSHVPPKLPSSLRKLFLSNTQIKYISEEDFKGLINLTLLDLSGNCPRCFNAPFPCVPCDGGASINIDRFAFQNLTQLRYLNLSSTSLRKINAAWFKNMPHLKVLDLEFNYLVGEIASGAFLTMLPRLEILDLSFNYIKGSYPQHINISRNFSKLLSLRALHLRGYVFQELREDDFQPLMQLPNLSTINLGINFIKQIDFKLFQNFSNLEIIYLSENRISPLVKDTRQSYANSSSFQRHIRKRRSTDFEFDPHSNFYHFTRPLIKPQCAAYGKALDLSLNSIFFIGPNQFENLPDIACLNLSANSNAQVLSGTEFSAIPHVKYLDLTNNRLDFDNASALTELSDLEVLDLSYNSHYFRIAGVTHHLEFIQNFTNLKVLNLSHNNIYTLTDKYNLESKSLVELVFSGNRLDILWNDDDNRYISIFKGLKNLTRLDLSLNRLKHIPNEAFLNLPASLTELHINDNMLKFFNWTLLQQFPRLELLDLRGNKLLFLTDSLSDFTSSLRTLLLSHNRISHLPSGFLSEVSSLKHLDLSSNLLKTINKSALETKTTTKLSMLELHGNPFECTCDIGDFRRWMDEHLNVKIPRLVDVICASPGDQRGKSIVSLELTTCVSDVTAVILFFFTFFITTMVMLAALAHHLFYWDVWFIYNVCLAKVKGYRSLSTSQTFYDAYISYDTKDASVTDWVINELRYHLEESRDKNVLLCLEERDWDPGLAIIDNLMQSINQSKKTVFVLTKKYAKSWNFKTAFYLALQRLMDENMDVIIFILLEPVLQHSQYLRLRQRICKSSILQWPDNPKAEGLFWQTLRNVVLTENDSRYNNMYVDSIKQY
The experiment in a line: Agonist activity at human TLR8 stably expressed in human HEK-Blue hTLR8 cells assessed as activation of NFkappaB by SAP reporter gene based spectrophotometric assay. It is filed as cell-based. For orientation: A reporter such as luciferase makes a cellular process visible.

Assay [2] is described as follows: Antagonist activity at monkey TLR7 expressed in Drosophila S2 cells by ITC analysis. Also on record: species or system Macaca mulatta. For orientation: In ITC the heat of successive injections is recorded.
A short description of assay [3]: Antagonist activity at mouse CpG-oligonucleotide in mouse WEHI-231 cells assessed as inhibition of CpG-oligonucleotide induced thymidine uptake in presence of anti-serum IgM. It is filed as cell-based. Particulars: WEHI231.
The next assay concerns the target T2, Toll-like receptor 7 (Homo sapiens, UniProt Q9NYK1).
T2 sequence (Q9NYK1 whole entry): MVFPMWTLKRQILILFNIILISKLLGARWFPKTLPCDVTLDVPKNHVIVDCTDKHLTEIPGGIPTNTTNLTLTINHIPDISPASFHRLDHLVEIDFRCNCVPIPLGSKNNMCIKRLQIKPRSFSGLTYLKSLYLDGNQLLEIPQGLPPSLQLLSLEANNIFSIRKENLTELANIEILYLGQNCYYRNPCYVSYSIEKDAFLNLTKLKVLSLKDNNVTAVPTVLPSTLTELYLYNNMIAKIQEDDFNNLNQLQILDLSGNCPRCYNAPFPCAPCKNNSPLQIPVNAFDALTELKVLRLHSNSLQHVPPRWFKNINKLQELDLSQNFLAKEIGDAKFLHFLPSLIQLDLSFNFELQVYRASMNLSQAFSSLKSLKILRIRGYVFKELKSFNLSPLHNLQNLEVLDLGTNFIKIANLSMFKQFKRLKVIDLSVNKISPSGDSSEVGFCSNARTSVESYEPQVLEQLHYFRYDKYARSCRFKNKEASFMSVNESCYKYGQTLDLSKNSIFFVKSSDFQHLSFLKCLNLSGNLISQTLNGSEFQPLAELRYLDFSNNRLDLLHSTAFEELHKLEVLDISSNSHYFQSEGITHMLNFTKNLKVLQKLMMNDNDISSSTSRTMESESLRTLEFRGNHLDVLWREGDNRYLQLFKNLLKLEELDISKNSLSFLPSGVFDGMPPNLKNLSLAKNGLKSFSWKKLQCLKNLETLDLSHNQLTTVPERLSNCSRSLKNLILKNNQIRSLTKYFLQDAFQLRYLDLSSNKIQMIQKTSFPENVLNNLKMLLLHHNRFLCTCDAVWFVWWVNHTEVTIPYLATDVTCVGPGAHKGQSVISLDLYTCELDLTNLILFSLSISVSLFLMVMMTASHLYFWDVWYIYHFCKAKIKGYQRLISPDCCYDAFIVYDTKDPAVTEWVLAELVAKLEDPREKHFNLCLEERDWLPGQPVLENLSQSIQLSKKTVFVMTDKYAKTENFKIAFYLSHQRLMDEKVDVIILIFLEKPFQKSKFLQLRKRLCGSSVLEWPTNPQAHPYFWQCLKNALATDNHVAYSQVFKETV
The experiment in a line: Agonist activity at human TLR7.

The values that follow come from ChEMBL document CHEMBL5226312, “Structural Evolution and Translational Potential for Agonists and Antagonists of Endosomal Toll-like Receptors” (J Med Chem, 2021).

With `CCCCOc1nc(N)c2[nH]c(=O)n(Cc3ccccc3)c2n1`, the minimal effective concentration in the assay with Splenocyte was determined as 0.001 µM.

With `CN(C)CCNc1cc(-c2ccc(CN3CCN(C)CC3)cc2)nc2ccccc12`, the EC50 in assay [1] worked out at 7.07 nM.

On to `CN(C)CCNc1cc(-c2ccc(N3CCN(C)CC3)cc2)nc2ccccc12`, for which the EC50 in assay [1] came to 0.76 nM.

`CN1CCN(Cc2ccc(-c3cc(N4CCN(C)CC4)c4ccccc4n3)cc2)CC1`: in assay [1], the EC50 came to 58 nM.

Regarding `CCCCOc1nc(N)c2nc(S)n(Cc3ccccc3)c2n1`, in the assay with Splenocyte, the minimal effective concentration is 0.001 µM.

As to `CCCCCc1nc(N)c2[nH]c(=O)n(Cc3ccccc3)c2n1`, in the assay on Splenocyte, the minimal effective concentration was determined as 0.01 µM.

With `CCCCc1nc2c(N)nc3ccccc3c2s1`, the EC50 on Toll-like receptor 8 worked out at 410 nM.

Take `CCOc1nc(C)c2nc(-c3cncc(F)c3)n(Cc3ccc(CN4C[C@H]5C[C@@H]4CN5C)cc3)c2n1`: the IC50 in assay [2] turned out to be 25 nM.

For the compound `CCOc1nc(N)c2nc(-c3cncc(F)c3)n(Cc3ccc(CN4C[C@H]5C[C@@H]4CN5C)cc3)c2n1`, inhibition in assay [2] was half-maximal at 25 nM (IC50).

Regarding `CN(C)CCNc1cc(-c2ccc3ccccc3c2)nc2ccccc12`, the EC50 in assay [3] is 9.1 nM.

As for `CN1CCN(Cc2cc(Nc3cc(-c4ccc5ccccc5c4)nc4ccccc34)cc(CN3CCN(C)CC3)c2O)CC1`, the EC50 in assay [3] is 0.24 nM.

As for `CCN(CC)CCCC(C)Nc1cc(-c2ccccc2)nc2ccccc12` (centres undefined), the EC50 in assay [3] stood at 51.3 nM.

As to `CCN(CC)CCCC(C)Nc1ccnc2cc(Cl)ccc12` (centres undefined) [CHLOROQUINE], the EC50 in assay [3] is 110 nM.

Take `CC(C)Cn1cnc2c(N)nc3ccccc3c21` [IMIQUIMOD]: a half-maximal response on Toll-like receptor 7 (EC50) required 2210 nM.

One may read the EC50 as the concentration needed to bring the measured effect to its halfway point. One may read the IC50 as the concentration needed to halve the response being measured.
